Measured values taken from ChEMBL document CHEMBL1156829 (Proc Natl Acad Sci U S A, 2008).

Legend:
[1] = NOVARTIS: Cytotoxicity against human hepatocellular carcinoma cell line (Huh7); assay type: toxicity, cell-based, Huh-7; settings: Huh7 cells (hepatocellular carcinoma cell line)
Plasmodium falciparum [2] = test: NOVARTIS: Inhibition of Plasmodium falciparum W2 (drug-resistant) proliferation in erythrocyte-based infection assay; assay type: functional, organism-based; settings: read-out: EC50
Plasmodium falciparum [3] = test: NOVARTIS: Inhibition of Plasmodium falciparum 3D7 (drug-susceptible) proliferation in erythrocyte-based infection assay; assay type: functional, organism-based

SMILES | CC50 [1] [nM] | EC50 (Plasmodium falciparum [2]; Plasmodium falciparum, W2) [nM] | EC50 (Plasmodium falciparum [3]; Plasmodium falciparum, 3D7) [nM] | EC50 (Plasmodium falciparum [2]) [nM] | EC50 (Plasmodium falciparum [3]) [nM]
CC1=C(C(=O)OC2CCCCC2)C(c2cccc([N+](=O)[O-])c2)C2=C(CCCC2=O)N1 (centres undefined) | 68400 | 1330 | 1640 |  | 
Cc1ccc2nc(Cl)c3cc(C(=O)NCCN4CCN(C)CC4)sc3c2c1 | 85900 | 11700 | 7770 |  | 
Oc1ccccc1C=NNc1nnc2c3ccccc3n(Cc3ccccc3)c2n1 | > 10000 | > 1720 | > 832 |  | 
COc1cccc(C(C(=O)NC2CCCCC2)N(C(=O)c2snc(C(N)=O)c2N)c2ccc(C)cc2)c1OC (centres undefined) | > 100000 | 1400 | 3440 |  | 
N=c1c2c(n(Cc3ccc(F)cc3)c3c1CCC3)CCC2 | > 100000 | 202 | 266 |  | 
O=C(NC1CCCCC1)c1noc2c1CCCCC2 | > 100000 | 5670 | > 12500 |  | 
CCOC(=O)C1=C(CC)NC2=C(C(=O)CCC2)C1c1ccc(N(C)C)cc1 (centres undefined) | > 100000 | 1910 | 8700 |  | 
CC1=C(C(=O)OC(C)C)C(c2ccc([N+](=O)[O-])cc2)C2=C(CCCC2=O)N1 (centres undefined) | > 100000 | 1140 | 6230 |  | 
COc1ccc2nc(NC(=O)c3ccc(C#N)cc3)sc2c1 | > 10000 | > 1250 | > 1060 |  | 
COc1ccc(C=Cc2ccc3ccccc3[n+]2C)cc1 | > 100000 | 7930 | > 5370 |  | 
COC(=O)C1=C(C)NC2=C(C(=O)CC(C)(C)C2)C1c1ccccc1[N+](=O)[O-] (centres undefined) | > 91500 | 5970 | > 12500 |  | 
COCCCNC(=O)/C=C/c1ccc(C(C)C)cc1 | > 13500 | 1490 | 1050 |  | 
C=CCc1cc(C=c2sc3n(c2=O)C(c2ccccc2)C(C(=O)OCC)=C(C)N=3)cc(OC)c1O (centres undefined) | > 100000 | 391 | 2500 |  | 
CN(C)C(=O)NCCCCNc1ccnc2cc(Cl)ccc12 | > 10000 | 609 | 992 |  | 
COc1ccc(-c2cn(-c3ccc(OC)cc3)c(SCC(=O)Nc3ccccc3)n2)cc1 | > 100000 | > 11200 | > 11200 |  | 
CCCc1nc2ccc(NC(=O)NCC)cc2c(=O)n1Cc1ccc(-c2ccccc2)cc1 | > 100000 | 6320 | 9050 |  | 
N#Cc1cc2[nH]c3ccccc3c2n(-c2ccc([N+](=O)[O-])cc2)c1=N | > 100000 | 3440 | 530 |  | 

SMILES | CC50 [1] [nM] | EC50 (Plasmodium falciparum [2]; Plasmodium falciparum, W2) [nM] | EC50 (Plasmodium falciparum [3]; Plasmodium falciparum, 3D7) [nM] | EC50 (Plasmodium falciparum [2]) [nM] | EC50 (Plasmodium falciparum [3]) [nM]
O=C(CSc1nc(-c2ccccc2Cl)ns1)Nc1ccc2c(c1)OCCO2 | > 100000 | 273 | 593 |  | 
Cc1c(C)n(Cc2ccc(F)cc2)c2ccc(C(=O)NCc3ccco3)cc12 | > 100000 | 399 | 78.2 |  | 
COc1ccc(C2CC(=O)C3=C(C2)NC(C)=C(C(=O)OC2CCCC2)C3c2ccc(F)cc2)cc1 (centres undefined) | > 100000 | 41.6 | 98.6 |  | 
CCCN1CCC(N2CCCC(c3[nH]ncc3-c3cccc(C(F)(F)F)c3)C2)CC1 (centres undefined) | > 10000 | 448 | 757 |  | 
Brc1ccc2c(c1)c1ccccc1n2CC1CO1 (centres undefined) | 29400 | 2250 | 4730 |  | 
COc1cccc2c1C(=O)c1c(O)c3c(c(O)c1C2=O)C[C@](O)(C(C)=O)C[C@@H]3O[C@H]1C[C@@H](N)[C@H](O)[C@H](C)O1 | 129 | 213 | 308 |  | 
COC(=O)C1=C(OC)C(=O)OC12C=CC(=O)C=C2 | 2520 | 423 | 2220 |  | 
COc1cc2c(Nc3ccc(Br)cc3F)ncnc2cc1OCC1CCN(C)CC1 [VANDETANIB] | 37200 | 1600 | 1920 |  | 
CCC1CC2CCC(O2)C(C)C(=O)OC(C)CC2CCC(O2)C(C)C(=O)OC(CC)CC2CCC(O2)C(C)C(=O)OC(C)CC2CCC(O2)C(C)C(=O)O1 (centres undefined) | 356 | 228 | 162 |  | 
CC(C)NCC(O)Cn1c2ccc(Br)cc2c2cc(Br)ccc21 (centres undefined) | 3360 | 54.4 | 216 |  | 
CC(=O)c1ccc(OCc2cc(C(=O)N3CCCCC3c3cccnc3)no2)cc1 (centres undefined) | > 100000 | 1370 | 4210 |  | 
CCN(CC)S(=O)(=O)c1ccc(C(=O)c2c(C)c(C(=O)C(F)(F)F)c3ccccn23)cc1 | > 100000 | 2020 | 3150 |  | 
CCCN(CCC)C(=O)c1c[nH]c2ccc(S(=O)(=O)N(C)c3ccc(F)cc3)cc2c1=O | > 100000 | 6650 | > 12500 |  | 
N#Cc1c2c(c(N3CCN(Cc4ccccc4)CC3)n3c1nc1ccccc13)CCC2 | > 100000 | 248 | 311 |  | 
CC[n+]1ccc(C=Cc2ccc(N(C)C)cc2)cc1 | > 84900 |  |  | > 4460 | 409
COc1ccc(CCNC(=O)c2cc(S(=O)(=O)N3CCC4(CC3)OCCO4)ccc2F)cc1OC | > 10000 | > 1160 | > 1250 |  | 
